This note sets out measurements from US9108983B2, “Pyrrole compounds, a process for their preparation and pharmaceutical compositions containing them” (LES LABORATOIRES SERVIER, priority 2013, dated 2015).

Structures can show the parent of a compound that is named as a salt.

The test system of assay [1] is RS4;11 leukaemia tumour line. Briefly: In vitro cytotoxicity (Microculture Tetrazolium Assay). The class given is cell-based. Particulars: Homo sapiens, RS4-11, 48 h, RS4;11 cells, exposed for 48 hours, cell viability; read-out: IC50 (nM) MTT RS4;11. The procedure:
The cytotoxicity studies were carried out on the RS4;11 leukaemia tumour line.
The cells are distributed onto microplates and exposed to the test compounds for 48 hours.
The cell viability is then quantified by a colorimetric assay, the Microculture Tetrazolium Assay (Cancer Res., 1987, 47, 939-942).

A further assay concerns the target Bcl-2 protein (histag-Bcl-2, UniProtKB P10415) (Homo sapiens (Human), UniProt P10415). Description: Inhibition of Bcl-2 by the fluorescence polarisation technique. The format is binding. The conditions noted are these: incubation for 2 hours, read-out: IC50 (nM) Bcl-2 FP. The essentials: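 In pH 7.4 buffer (Hepes 10 mM, NaCl 150 mM, Tween20 0.05%), test compounds at increasing concentrations competed with a fluorescein peptide (1.00×10^−8 M final) for histag-Bcl-2 (2.50×10^−8 M final). Readout was fluorescence polarisation after a 2 h incubation.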

Sequence of Bcl-2 protein (P10415 whole entry): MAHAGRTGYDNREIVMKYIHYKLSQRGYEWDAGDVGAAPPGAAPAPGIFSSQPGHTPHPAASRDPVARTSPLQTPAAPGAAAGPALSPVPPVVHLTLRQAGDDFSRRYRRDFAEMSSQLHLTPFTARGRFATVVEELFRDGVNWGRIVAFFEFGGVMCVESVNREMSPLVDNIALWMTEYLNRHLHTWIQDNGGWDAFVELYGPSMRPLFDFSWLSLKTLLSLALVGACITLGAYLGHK

As to `Cc1c(C(=O)N(c2ccc(O)cc2)c2cnc3c(c2)CCN3C)cc(-c2ccccc2C(=O)N2Cc3ccccc3C[C@H]2CN2CCOCC2)n1C` [Example 410, N-(4-Hydroxyphenyl)-1,2-dimethyl-N-(1-methyl-2,3-dihydro-1H-pyrrolo[2,3-b]pyridin-5-yl)-5-(2-{[(3S)-3-(morpholin-4-ylmethyl)-3,4-dihydroisoquinolin-2(1H)-yl]carbonyl}phenyl)-1H-pyrrole-3-carboxamide hydrochloride], the IC50 – broadly, the midpoint of a concentration-inhibition curve – was determined as 61.6 nM in assay [1] and 9.9 nM at Bcl-2 protein.

On to `Cc1c(C(=O)N(c2ccc(O)cc2)c2cnn(C)c2)cc(-c2cc(Cl)ccc2C(=O)N2Cc3ccccc3C[C@H]2C)n1CCN1CCOCC1` [Example 411, 5-(5-Chloro-2-{[(3R)-3-methyl-3,4-dihydroisoquinolin-2(1H)-yl]carbonyl}phenyl)-N-(4-hydroxyphenyl)-2-methyl-N-(1-methyl-1H-pyrazol-4-yl)-1-[2-(morpholin-4-yl)ethyl]-1H-pyrrole-3-carboxamide hydrochloride], for which the IC50 in assay [1] is 32.8 nM; at Bcl-2 protein, 5.5 nM.

For the molecule `Cc1c(N(C(=O)c2cc(-c3cc(Cl)ccc3C(=O)N3Cc4ccccc4C[C@H]3CCCN3CCOCC3)n(C)c2C)c2ccc(O)cc2)cc(C#N)n1C` [Example 412, 5-(5-Chloro-2-{[(3R)-3-[3-(morpholin-4-yl)propyl]-3,4-dihydroisoquinolin-2(1H)-yl]carbonyl}phenyl)-N-(5-cyano-1,2-dimethyl-1H-pyrrol-3-yl)-N-(4-hydroxyphenyl)-1,2-dimethyl-1H-pyrrole-3-carboxamide hydrochloride], the IC50 in assay [1] was found to be 0.398 nM; on Bcl-2 protein, 3.1 nM.

Turning to `Cc1c(N(C(=O)c2cc(-c3cc4c(cc3C(=O)N3Cc5ccccc5C[C@H]3CN3CCOCC3)OCCO4)n(C)c2C)c2ccc(O)cc2)cc(C#N)n1C` [Example 413, N-(5-Cyano-1,2-dimethyl-1H-pyrrol-3-yl)-N-(4-hydroxyphenyl)-1,2-dimethyl-5-(7-{[(3S)-3-(morpholin-4-ylmethyl)-3,4-dihydroisoquinolin-2(1H)-yl]-carbonyl}-2,3-dihydro-1,4-benzodioxin-6-yl)-1H-pyrrole-3-carboxamide hydrochloride], the half-maximal inhibitory concentration (IC50) was determined as 9.43 nM in assay [1] and 3.1 nM on Bcl-2 protein.

Regarding `Cc1c(N(C(=O)c2cc(-c3cc(Cl)ccc3C(=O)N3Cc4ccccc4C[C@H]3CN3CCOCC3)n(C)c2)c2ccc(O)cc2)cc(C#N)n1C` [Example 415, 5-(5-Chloro-2-{[(3S)-3-(morpholin-4-ylmethyl)-3,4-dihydroisoquinolin-2(1H)-yl]carbonyl}phenyl)-N-(5-cyano-1,2-dimethyl-1H-pyrrol-3-yl)-N-(4-hydroxyphenyl)-1-methyl-1H-pyrrole-3-carboxamide hydrochloride], the IC50 stood at 29.9 nM in assay [1] and 3.8 nM on Bcl-2 protein.

Consider `Cl.[2H]C([2H])([2H])n1cc(N(C(=O)c2cc(-c3cc(Cl)ccc3C(=O)N3Cc4ccccc4C[C@H]3CN3CCOCC3)n(C)c2C)c2ccc(O)cc2)cn1` [Example 416, 5-(5-Chloro-2-{[(3S)-3-(morpholin-4-ylmethyl)-3,4-dihydroisoquinolin-2(1H)-yl]carbonyl}phenyl)-N-(4-hydroxyphenyl)-1,2-dimethyl-N-[1-(trideuteriomethyl)-1H-pyrazol-4-yl]-1H-pyrrole-3-carboxamide hydrochloride], for which the IC50 in assay [1] turned out to be 42.5 nM; at Bcl-2 protein it was 2.9 nM.

Regarding `COc1ccc(-c2cc(C(=O)N(c3ccc(O)cc3)c3cc(C#N)n(C)c3C)c(C)n2C)c(C(=O)N2Cc3ccccc3C[C@H]2CN2CCOCC2)c1` [Example 417, N-(5-Cyano-1,2-dimethyl-1H-pyrrol-3-yl)-N-(4-hydroxyphenyl)-5-(4-methoxy-2-{[(3S)-3-(morpholin-4-ylmethyl)-3,4-dihydroisoquinolin-2(1H)-yl]carbonyl}phenyl)-1,2-dimethyl-1H-pyrrole-3-carboxamide hydrochloride], the concentration for half-maximal inhibition (IC50) in assay [1] was 11 nM; on Bcl-2 protein it was 3 nM.
